Values joined by “and” are separate entries in the source; they are usually repeats but may differ in a detail not shown here. Equal values may be shown once.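 Where inhibition never reached the appropriate level, the endpoint shown equals the highest concentration tested. Otherwise, values were interpolated linearly from a five-concentration, 48-hour dose response in 96-well plates. GI50: concentration for 50% inhibition of growth. Definition used: TGI = concentration required for complete inhibition of growth.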 Where a SMILES comes first, the peptide text is derived from it. [ ]: non-standard residue; d: D form. The star is where a group is joined. ξ: configuration not given here. Cbz = O=C(OCc1ccccc1)*; ξK = NCCCCC(N)C(=O)O
Legend:
Test in all cases: NCI-60 cell line screen, 48 h
[1] = system: OVCAR-5 ovarian
[2] = system: HCC-2998 colon
[3] = system: NCI-H522 lung
[4] = system: SF-295 CNS
[5] = system: SNB-75 CNS
[6] = system: RXF 393 renal
[7] = system: T-47D breast
[8] = system: SK-MEL-28 melanoma
[9] = system: HCT-15 colon
[10] = system: PC-3 prostate
[11] = system: CCRF-CEM leukemia
[12] = system: NCI-H23 lung
[13] = system: MOLT-4 leukemia
[14] = system: HS 578T breast
[15] = system: EKVX NSCLC
[16] = system: RPMI-8226 leukemia
[17] = system: COLO 205 colon
[18] = system: SF-539 CNS
[19] = system: HOP-92 NSCLC
[20] = system: HCT-116 colon
[21] = system: SK-OV-3 ovarian
[22] = system: SK-MEL-2 melanoma
[23] = system: KM12 colon
[24] = system: DU-145 prostate
[25] = system: SW-620 colon
[26] = system: OVCAR-3 ovarian
[27] = system: UACC-62 melanoma
[28] = system: HT29 colon
[29] = system: HOP-62 NSCLC
[30] = system: SN12C renal
[31] = system: SR leukemia
[32] = system: M14 melanoma
[33] = system: NCI-H226 lung
[34] = system: UO-31 renal
[35] = system: MDA-MB-435
[36] = system: MDA-MB-231 breast
[37] = system: NCI/ADR-RES ovarian
[38] = system: MDA-N
[39] = system: OVCAR-8 ovarian
[40] = system: MCF7 breast
[41] = system: MALME-3M melanoma
[42] = system: UACC-257 melanoma
[43] = system: ACHN renal
[44] = system: SNB-19 CNS
[45] = system: K-562 leukemia
[46] = system: 786-0 renal
[47] = system: A549 NSCLC
[48] = system: SK-MEL-5 melanoma
[49] = system: SF-268 CNS
[50] = system: LOX IMVI melanoma
[51] = system: CAKI-1 renal
[52] = system: U251 CNS
[53] = system: OVCAR-4 ovarian
[54] = system: IGROV1 ovarian
[55] = system: A498 renal
[56] = system: NCI-H460 lung
[57] = system: HL-60(TB) leukemia
[58] = system: TK-10 renal
[59] = system: BT-549 breast

## NCCCCC(NC(=O)OCc1ccccc1)C(=O)NCC(N)=O (centres undefined) (Cbz-[ξK]-Gly-NH2)
[1]
  TGI: > 100 µM
[2]
  TGI: > 100 µM
[3]
  TGI: > 100 µM
[4]
  TGI: > 100 µM
[5]
  TGI: > 100 µM
[6]
  TGI: > 100 µM
[7]
  TGI: > 100 µM
[8]
  TGI: > 100 µM
[9]
  TGI: > 100 µM
[10]
  TGI: > 100 µM
[11]
  TGI: > 100 µM
[12]
  TGI: > 100 µM
[13]
  TGI: > 100 µM
[14]
  TGI: > 100 µM
[15]
  TGI: > 100 µM
[16]
  TGI: > 100 µM
[17]
  TGI: > 100 µM
[18]
  TGI: > 100 µM
[19]
  TGI: > 100 µM
[20]
  TGI: > 100 µM
[21]
  TGI: > 100 µM
[22]
  TGI: > 100 µM
[23]
  TGI: > 100 µM
[24]
  TGI: > 100 µM
[25]
  TGI: > 100 µM
[26]
  TGI: > 100 µM
[27]
  TGI: > 100 µM
[28]
  TGI: > 100 µM
[29]
  TGI: > 100 µM
[30]
  TGI: > 100 µM
[31]
  TGI: > 100 µM
[32]
  TGI: > 100 µM
[33]
  TGI: > 100 µM
[34]
  TGI: > 100 µM
[35]
  TGI: > 100 µM
[36]
  TGI: > 100 µM
[37]
  TGI: > 100 µM
[38]
  TGI: > 100 µM
[39]
  TGI: > 100 µM
[40]
  TGI: > 100 µM
[41]
  TGI: > 100 µM
[42]
  TGI: > 100 µM
[43]
  TGI: > 100 µM
[44]
  TGI: > 100 µM
[45]
  TGI: > 100 µM
[46]
  TGI: > 100 µM
[47]
  TGI: > 100 µM
[48]
  TGI: > 100 µM
[49]
  TGI: > 100 µM
[50]
  TGI: > 100 µM
[51]
  TGI: > 100 µM
[52]
  TGI: > 100 µM
[53]
  TGI: > 100 µM
[54]
  TGI: > 100 µM
[55]
  TGI: > 100 µM
[56]
  TGI: > 100 µM

## COc1ccc(C2=NN(C(=O)c3ccc(Cl)cc3)C(O)(c3cc(F)c(Cl)cc3Cl)C2)cc1OC (centres undefined)
[1]
  TGI: > 100 µM
[2]
  TGI: > 100 µM
[3]
  TGI: > 100 µM
[4]
  TGI: > 100 µM
[6]
  TGI: > 100 µM
[7]
  TGI: > 100 µM
[8]
  TGI: > 100 µM
[9]
  TGI: > 100 µM
[10]
  TGI: > 100 µM
[11]
  TGI: > 100 µM
[12]
  TGI: > 100 µM
[13]
  TGI: > 100 µM
[14]
  TGI: > 100 µM
[15]
  TGI: > 100 µM
[16]
  TGI: > 100 µM
[18]
  TGI: > 100 µM
[19]
  TGI: > 100 µM
[20]
  TGI: > 100 µM
[21]
  TGI: > 100 µM
[22]
  TGI: > 100 µM
[23]
  TGI: > 100 µM
[24]
  TGI: > 100 µM
[25]
  TGI: > 100 µM
[26]
  TGI: > 100 µM
[28]
  TGI: > 100 µM
[29]
  TGI: > 100 µM
[32]
  TGI: > 100 µM
[33]
  TGI: > 100 µM
[34]
  TGI: 10.9 µM
[57]
  TGI: 2.2 µM
[35]
  TGI: > 100 µM
[36]
  TGI: > 100 µM
[37]
  TGI: > 100 µM
[38]
  TGI: > 100 µM
[39]
  TGI: > 100 µM
[40]
  TGI: > 100 µM
[42]
  TGI: > 100 µM
[43]
  TGI: > 100 µM
[45]
  TGI: > 100 µM
[46]
  TGI: > 100 µM
[58]
  TGI: > 100 µM
[48]
  TGI: > 100 µM
[49]
  TGI: > 100 µM
[50]
  TGI: > 100 µM
[51]
  TGI: 98.4 µM
[52]
  TGI: > 100 µM
[53]
  TGI: > 100 µM
[54]
  TGI: > 100 µM
[55]
  TGI: > 100 µM
[56]
  TGI: > 100 µM

## COc1ccc2[nH]c3c(C)c4ccnc(NCCCN(C)CCCNc5ccc6nnn7c8ccccc8c(=O)c5c67)c4c(C)c3c2c1
[1]
  TGI: 2.73 µM
[2]
  TGI: 1.44 µM
[3]
  TGI: 1.67 µM
[4]
  TGI: 1.44 µM
[5]
  GI50: 1.41 µM
  TGI: 2.17 µM and 2.86 µM
[6]
  TGI: 2.57 µM
[7]
  TGI: 6.94 µM
[8]
  GI50: 3.45 µM
[9]
  TGI: 1.57 µM
[10]
  TGI: 1.91 µM
[59]
  TGI: 3.51 µM
[11]
  TGI: 5.51 µM
[12]
  TGI: 2.04 µM
[13]
  TGI: 0.132 µM
[14]
  TGI: 3.91 µM
[15]
  TGI: 2.17 µM
[16]
  TGI: 2.19 µM
[17]
  TGI: 3.53 µM
[18]
  TGI: 1.38 µM
[20]
  TGI: 1.14 µM
[21]
  GI50: 3.29 µM
  TGI: > 100 µM
[23]
  GI50: 0.818 µM
  TGI: 1.8 µM and 2.33 µM
[25]
  TGI: 1.16 µM
[26]
  TGI: 2.4 µM
[28]
  TGI: 1.36 µM
[29]
  TGI: 2.05 µM
[30]
  GI50: 0.294 µM
  TGI: 1.99 µM and 1.67 µM
[31]
  TGI: > 100 µM
[32]
  TGI: 2.13 µM
[34]
  GI50: 1.29 µM
  TGI: 2.61 µM and 2.76 µM
[57]
  TGI: 1.21 µM
[35]
  TGI: 1.75 µM
[36]
  TGI: 3.19 µM
[37]
  TGI: 2.69 µM
[38]
  TGI: 2.09 µM
[39]
  TGI: 2.13 µM
[40]
  TGI: 1.25 µM
[42]
  TGI: 4.75 µM
[43]
  GI50: 0.136 µM
  TGI: 1.29 µM and 1.55 µM
[44]
  TGI: 2.42 µM
[46]
  TGI: 1.69 µM
[47]
  TGI: 1.06 µM
[58]
  TGI: 2.38 µM
[49]
  GI50: 0.209 µM
  TGI: 2.51 µM and 3.14 µM
[50]
  TGI: 1.62 µM
[51]
  TGI: 2.27 µM
[52]
  TGI: 1.67 µM
[53]
  TGI: 4.72 µM
[54]
  TGI: 1.8 µM
[55]
  TGI: 2.88 µM
[56]
  TGI: 0.492 µM
